Measurements from the METLIN SMRT retention time set (Domingo-Almenara et al. 2019).

Assay: gradient 5% acetonitrile 3 min, to 50% in 2 min, to 85% in 15 min, held 3 min, 100 µL/min
Details: column: Zorbax Extend-C18 2.1 x 50 mm; eluents: water / acetonitrile, 0.1% formic acid
Outline: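 Over 3 months, pure standards in mixtures of ~100 molecules were run by HPLC coupled to a quadrupole time-of-flight mass spectrometer in positive and negative ionization mode. The column was a Zorbax Extend-C18 (2.1 × 50 mm, 1.8 μm) at 100 μL/min, eluted with water and acetonitrile each holding 0.1% formic acid, with 40 μL dead and 900 μL dwell volumes. Retention time was determined from adduct peaks chosen by software and checked manually.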

Row | SMILES | RP-LC retention time [s]
1 | Cc1ccc(NC(=O)N2CCc3c(c(-c4nnc(-c5ccc(F)cc5)o4)nn3C)C2)cc1Cl | 1010
2 | CC(=O)Nc1ccc(-n2cnc(C(=O)NCCC3=CCCCC3)c2)nc1 | 739
3 | O=C(Cn1ccc2ccc(N3CCOCC3)nc21)NCC1CCCCC1 | 924
4 | CC1(C(=O)NCc2ccc(F)cc2)CCN(C(=O)Nc2ccccc2C(F)(F)F)CC1 | 877
5 | Cc1c(CC(=O)NC2CC2)c(=O)n2nc(-c3ccccc3)nc2n1C | 651
6 | COC1CN(c2cccc(F)c2)C12CCN(C(=O)C1(c3ccccc3)CC1)CC2 (stereo unspecified) | 1120
7 | COCC(C)NC(=O)c1cc2c(s1)N(CC(C)C)CCCC2 (stereo unspecified) | 1080
8 | CCSC(=O)N1c2ccc(OC)cc2C=CC1C#N (stereo unspecified) | 911
9 | O=C(Cn1cc(-c2ccccc2)c(N2CCOCC2)n1)N1CCN(c2ccccc2F)CC1 | 978
10 | O=c1n(Cc2cccc(Br)c2)nc2c(S(=O)(=O)N3CCc4ccccc4C3)cccn12 | 1030
11 | CCOC(=O)c1[nH]c(C(=O)O)c(OC(=O)CC)c1C | 912
12 | CCCNC(=O)N1CCN(c2nc3ccccc3n(Cc3ccc(C)cc3)c2=O)CC1 | 978
13 | CCCN1CCN(C(=O)C(C)n2nc(C)c3nn(-c4ccccc4)c(-n4cccc4)c3c2=O)CC1 (stereo unspecified) | 692
14 | Cc1ccc(-n2ncc3c(=O)n(Cc4nc(-c5ccc(OC(C)C)cc5)no4)cnc32)cc1 | 1200
15 | O=S1(=O)C[C@H](N2CCN(c3ccccn3)CC2)[C@@H](S(=O)(=O)c2cccs2)C1 | 586
16 | CCOc1ccc(NC(=O)C2CC(=O)N(CCc3c[nH]c4ccc(F)cc34)C2)cc1 (stereo unspecified) | 811
17 | O=C1NC2(CCN(C(=O)c3ccccc3)CC2)N=C1c1ccc(Br)cc1 | 861
18 | Cn1cccc1C(CNC(=O)Nc1ccc(Cl)c(Cl)c1)N1CCOCC1 (stereo unspecified) | 601
19 | CC(C)NC(=O)N1CCC(c2nc(C(C)C)cs2)CC1 | 766
20 | CCOC(=O)CNC(=O)NC12CC3CC(CC(C3)C1)C2 | 802
21 | CCOc1nc2ccccc2nc1N1CCCC(C(=O)Nc2cccc(Cl)c2)C1 (stereo unspecified) | 1290
22 | Cc1cc(C)c(C(=O)N2CCC(CC(=O)NC3CCCCCC3)CC2)[nH]1 | 800
23 | CCc1ccc(Oc2nccnc2N2CCC(C(=O)N3CCN(c4ccccn4)CC3)CC2)cc1 | 734
24 | COc1ccc(Cl)cc1S(=O)(=O)Nc1ccc2nc(N3CCN(C)CC3)cc(C(=O)O)c2c1 | 604
25 | COc1ccc(Cl)cc1NC(=O)NCc1ccnc(N2CCSCC2)c1 | 667
26 | Cn1ccc(C(=O)Nc2ccc(S(C)(=O)=O)cc2)n1 | 613
27 | O=C(C(=O)N1CCN(c2ccccc2)CC1)c1c[nH]c2ccccc12 | 845
28 | O=C(CN1CCCC1=O)NCc1ccc(F)c(Cl)c1 | 667
29 | Cc1cc(S(=O)(=O)N(C)C2CCc3nn(CC4CC4)c(=O)n3CC2)ccc1Cl (stereo unspecified) | 827
30 | O=C1c2ccccc2S(=O)(=O)N1CC(O)COc1ccc(Cl)cc1Cl (stereo unspecified) | 900

More lines, now with the values ahead:

Row | RP-LC retention time [s] | SMILES
31 | 600 | CCn1c(CC2CCN(C(=O)Nc3ccc(C)cc3)C2)nc2cccnc21 (stereo unspecified)
32 | 665 | Cn1nccc1C(=O)N1CCCCC1c1nncn1Cc1ccccc1 (stereo unspecified)
33 | 870 | Cc1ccc(-n2c(-c3ccc(Cl)cc3)cn3c4c(=O)n(C)c(=O)n(C)c4nc23)cc1N
34 | 732 | COc1ccc(-c2cn3ccn(-c4ccc(OC)c(OC)c4)c(=O)c3n2)cc1
35 | 705 | Cc1cc(-n2nnc(C(=O)O)c2C)ccc1F
36 | 867 | CC(C(=O)Nc1cc(F)ccc1F)C1CCN(C(=O)Nc2ccccc2)CC1 (stereo unspecified)
37 | 899 | Cc1cc(NC(=O)C2CCCN(c3ccc(=O)n(-c4ccc(F)cc4)n3)C2)ccc1Br (stereo unspecified)
38 | 733 | CN1C(=O)COc2ccc(-c3csc(NC(=O)c4cccnc4)n3)cc21
39 | 691 | O=C(CN1C(=O)COc2ccc(C(=O)N3CCCCC3)cc21)NCc1ccco1
40 | 993 | Cc1cc(C)cc(Nc2cc(C)n3c(=O)n(Cc4cc(=O)n5ccccc5n4)nc3n2)c1
41 | 718 | COc1ccc(NC(=O)C2CCN(c3cnc4nc(C)c(C)nc4c3)CC2)cc1F
42 | 719 | COc1cc(NC(=O)C(C)Oc2ccc(=O)n(-c3ccc(F)cc3)n2)cc(OC)c1OC (stereo unspecified)
43 | 1050 | N#Cc1c(NC(=O)c2ccc([N+](=O)[O-])cc2Cl)sc2c1CCCC2
44 | 934 | O=C1COc2ccccc2N1Cc1nc(-c2ccc3c(c2)OCO3)no1
45 | 963 | CC1CC(C)CN(C(=O)C2CCCN(C(=O)c3cc4sccc4n3C)C2)C1 (stereo unspecified)
46 | 986 | Cc1cccc(N2CCN([C@H]3CS(=O)(=O)C[C@@H]3S(=O)(=O)c3ccc(F)c(C)c3)CC2)c1
47 | 655 | O=C(COc1ccc(F)cc1)N1CCN(c2nc(CN3CCCCC3)cs2)CC1
48 | 983 | Cc1cccc(CNS(=O)(=O)c2ccc(-c3c(C)noc3C)cc2)c1

Row | RP-LC retention time [s] | SMILES
49 | 669 | CCCN(C)C(=O)C1CCN(c2cnn(CCC)c(=O)c2)CC1
50 | 1300 | Cc1ccc(-c2noc(Cn3cnc4c(cnn4-c4ccc(C(C)C)cc4)c3=O)n2)cc1
51 | 930 | O=C(NC1CCCCCCC1)C1CCN(Cc2cc3ccccc3n2Cc2cccc(Cl)c2)CC1
52 | 951 | CCCc1nc(-c2c(C)cc(C)nc2NC(=O)c2ccccc2C(F)(F)F)no1
53 | 566 | Cc1ccn2cc(C(=O)N3CCN(C4CCCCC4)CC3)nc2c1
54 | 1110 | O=C(Cn1cnc2c(sc3nc(-c4ccccc4)ccc32)c1=O)Nc1cccc(Br)c1
55 | 561 | O=C(NCc1nc2ccccc2[nH]1)c1ccc(OCC(=O)C2CC2)cc1
56 | 615 | Cc1ccc(CNC(=O)Cn2ncc3c(N4CCN(c5ccccn5)CC4)ncnc32)cc1
57 | 711 | CC1CCCC(NC(=O)Cn2cnc3c(nc4n3CCCCC4)c2=O)C1C (stereo unspecified)
58 | 872 | Cc1cccc(N2C(=O)CN(Cc3ccccc3C)[C@H]3CS(=O)(=O)C[C@H]32)c1
59 | 750 | CCCOC(=O)c1cnc2nc(C)ccc2c1NCc1ccc(OC)cc1
60 | 730 | CCn1c(CC2C(=O)Nc3ccccc32)nc2ccccc2c1=O (stereo unspecified)
61 | 780 | Cc1cc(F)ccc1NC(=O)C1CCN(c2cnc3ccccc3n2)CC1
62 | 752 | CC(C)Sc1ccc(CC(=O)NCC2(O)CCCC2)cc1
63 | 919 | COc1ccc(N2CCN(c3ncc(S(=O)(=O)c4ccc(C)cc4)c(N)n3)CC2)cc1
64 | 708 | CCOC(=O)c1c(C)oc2nc(C)nc(N3CCN(Cc4ccc5c(c4)OCO5)CC3)c12
65 | 778 | O=C(c1ccc(-c2ccc([N+](=O)[O-])cc2Cl)o1)N1CCOCC1
66 | 572 | COc1ccc(-c2nc(NCCCN3CCCC(C)C3)c3ccccc3n2)cc1 (stereo unspecified)
